# Results from US11925624B2, “Methods of administering anti-fibrotic therapy” (GENENTECH, INC., priority 2016, dated 2024).
# Read-outs that look alike come from different tables or passages of the source.
# Assay: Phase 1 Part A food effect (high-fat / low-fat breakfast) on single-dose pharmacokinetics
# Assay type: in vivo, human
# Conditions: for Test/Reference ratio of LS means, AUC0-t / Test/Reference ratio of LS means, AUC0-∞ / Test/Reference ratio of LS means, Cmax: 400 mg Fed; for % AUCextrap: arithmetic mean; for Tmax / AUC(0-t) / AUC(0-inf) / Cmax / Vd/F / half-life: human, plasma, oral
# Description: This study was a randomized, blinded, placebo-controlled, ascending-dose study to evaluate the safety, tolerability, and pharmacokinetic (PK) of single (Part A) and multiple (Part B) doses of Compound I in healthy subjects. In addition, the effects of a standard high-fat breakfast, standard low-fat breakfast, and pretreatment and co-administration of a proton pump inhibitor (PPI) on the tolerability and PK of a single dose of Compound I were investigated in 2 groups in Part A. All subjects received their full dose of Compound I, administered as the appropriate number of either 25 or 200 mg tablets. The high fat breakfast comprised the following: total energy: 895 kcal; total fat: 61 g; total protein: 41 g; total carbohydrate: 46 g. The low fat breakfast comprised the following: total energy: 611 kcal; total fat: 14.7 g; total protein: 20.3 g; total carbohydrate: 106.3 g.
# For Group A4, doses (400 mg Compound I or placebo) during Treatment Period 1 were administered in a fasted state on the morning of Day 1. Doses in Treatment Period 2 were administered 30 minutes after starting, and within approximately 10 minutes of completing, a high-fat standard breakfast on the morning of Day 1. Doses during Treatment Period 3 were administered 30 minutes after starting, and within approximately 10 minutes of completing a low-fat standard meal on the morning of Day 1. Doses during Treatment Period 4 were administered on Day 1 after an overnight fast and following administration of a PPI (rabeprazole 20 mg) for 3 days (given as 3 daily [QD] doses, with the final PPI dose at 2 hours prior to study drug administration on Day 1). Subjects in Group A4 received the same Compound I or placebo treatment in all treatment periods, such that each subject received up to 4 single doses of Compound I or placebo.
# For Group A5, doses (800 mg Compound I or placebo) during Treatment Period 1 were administered in a fasted state on the morning of Day 1, doses during Treatment Period 2 were administered 30 minutes after starting a low-fat standard breakfast on the morning of Day 1, and doses during Treatment Period 3 were administered on Day 1 after a low-fat meal and following administration of a PPI (rabeprazole 20 mg) for 3 days (given as 3 QD doses, with the final PPI dose at 2 hours prior to study drug administration on Day 1). Subjects in Group A5 received the same Compound I or placebo treatment in all treatment periods, such that each subject received up to 3 single doses of Compound I or placebo.
# For Group A4, each subject participated in 3 additional treatment periods, each separated by a minimum of 7 days. Group A4 resided at the CRU from Day −1 to Day 4 of Treatment Periods 2, 3, and 4. For Group A5, each subject participated in 2 additional treatment periods, each separated by a minimum of 7 days. Group A5 resided at the CRU from Day −1 to Day 4 of Treatment Periods 2 and 3. All subjects returned for a Follow-up visit between 5 to 14 days after their final dose of study treatment.
# In Part A, all doses in Treatment Period 1 were administered after an overnight fast of at least 8 hours. For the A4 cohort, in Treatment Periods 2 and 3, doses were administered 30 minutes after starting and approximately 10 minutes after completing a high- or low-fat breakfast. In Treatment Period 4, the dose was administered after an overnight fast and following administration of a PPI (PPI was comprised of 3 doses of rabeprazole 20 mg, starting on Day −2 and with the final dose 2 hours before Compound I administration on Day 1). For Group A5, doses during Treatment Period 2 were administered 30 minutes after starting and approximately 10 minutes after completing a low-fat standard breakfast on the morning of Day 1, and doses during Treatment Period 3 were administered on Day 1 after a low-fat meal and following administration of a PPI for 3 days (given as 3 QD doses, with the final PPI dose at 2 hours prior to study drug administration on Day 1).
# [1] = High-fat (Test) vs 400 mg Fasted (Reference)
# [2] = High-fat (Test) vs 400 mg Fed, Low-fat (Reference)
# [3] = Low-fat (Test) vs 400 mg Fasted (Reference)
# [4] = 400 mg single dose (A4), Fed, High-fat
# [5] = 400 mg single dose (A4), Fed, Low-fat
# [6] = 800 mg single dose (A5), Fed, Low-fat
# [7] = 800 mg, low-fat fed state vs fasted
# [8] = Table 3, 4th section, Low-fat (Test) vs 400 mg Fasted (Reference), n = 6
# [9] = high-fat fed state from the fasted state
structure (smiles),measurement,setting,value
Cn1cc(-c2cn(-c3ccc(OC(F)(F)F)cc3)c(=O)c3ncn(C)c23)cn1 [Compound I],"Test/Reference ratio of LS means, AUC0-t",[1],149.0%
same,"Test/Reference ratio of LS means, AUC0-∞",[1],145.8%
same,"Test/Reference ratio of LS means, Cmax",[1],168.9%
same,"Test/Reference ratio of LS means, AUC0-t",[2],108.7%
same,"Test/Reference ratio of LS means, AUC0-∞",[2],108.2%
same,"Test/Reference ratio of LS means, Cmax",[2],102.7%
same,"Test/Reference ratio of LS means, AUC0-t",[3],137.1%
same,"Test/Reference ratio of LS means, AUC0-∞",[3],134.7%
same,"Test/Reference ratio of LS means, Cmax",[3],164.4%
same,AUC0-t (norm),[4],14000 (hr*ng/mL)/(mg/kg)
same,AUC0-∞ (norm),[4],14100 (hr*ng/mL)/(mg/kg)
same,CL/F,[4],83.0 mL/min
same,CL/F(norm),[4],1.19 (mL/min)/kg
same,Cmax (norm),[4],1330 ng/mL/mg/kg
same,λZ,[4],0.0861 h⁻¹
same,% AUCextrap,[4],0.213%
same,AUC0-t (norm),[5],12900 (hr*ng/mL)/(mg/kg)
same,AUC0-∞ (norm),[5],13000 (hr*ng/mL)/(mg/kg)
same,CL/F,[5],89.8 mL/min
same,CL/F(norm),[5],1.28 (mL/min)/kg
same,Cmax (norm),[5],1300 ng/mL/mg/kg
same,λZ,[5],0.0852 h⁻¹
same,% AUCextrap,[5],0.691%
same,AUC0-t (norm),[6],14300 (hr*ng/mL)/(mg/kg)
same,AUC0-∞ (norm),[6],14400 (hr*ng/mL)/(mg/kg)
same,CL/F,[6],83.3 mL/min
same,CL/F(norm),[6],1.16 (mL/min)/kg
same,Cmax (norm),[6],1200 ng/mL/mg/kg
same,λZ,[6],0.0793 h⁻¹
same,% AUCextrap,[6],0.395%
same,"Ratio of fed to fasted, AUC0-t",[7],214.0%
same,"Ratio of fed to fasted, AUC0-∞",[7],203.3%
same,"Ratio of fed to fasted, Cmax",[7],225.5%
same,"Test/Reference ratio of LS means, AUC0-t",[8],214.0%
same,"Test/Reference ratio of LS means, AUC0-∞",[8],203.3%
same,"Test/Reference ratio of LS means, Cmax",[8],225.5%
same,Food effect on bioavailability,administration with food (high fat or low fat meal),positive food effect
same,Increase in AUC0-t,[9],49.0%
same,Increase in AUC0-∞,[9],45.8%
same,Increase in Cmax,[9],68.9%
same,Tmax,"400 mg, 400 mg single dose (A4), Fed, High-fat, median, read-out: tmax",3.5 h
same,AUC(0-t),"400 mg, 400 mg single dose (A4), Fed, High-fat, read-out: AUC0-t",80200 ng·h/mL
same,AUC(0-inf),"400 mg, 400 mg single dose (A4), Fed, High-fat, read-out: AUC0-∞",80300 ng·h/mL
same,Cmax,"400 mg, 400 mg single dose (A4), Fed, High-fat, read-out: Cmax",7620 ng/mL
same,Vd/F,"400 mg, 400 mg single dose (A4), Fed, High-fat, read-out: Vz/F",57.8 L
same,Vd/F,"400 mg, 400 mg single dose (A4), Fed, High-fat, read-out: Vz/F(norm)",0.826 L/kg
same,half-life,"400 mg, 400 mg single dose (A4), Fed, High-fat, read-out: t1/2 (converted)",8.05 h
same,Tmax,"400 mg, 400 mg single dose (A4), Fed, Low-fat, median, read-out: tmax",2.5 h
same,AUC(0-t),"400 mg, 400 mg single dose (A4), Fed, Low-fat, read-out: AUC0-t",73700 ng·h/mL
same,AUC(0-inf),"400 mg, 400 mg single dose (A4), Fed, Low-fat, read-out: AUC0-∞",74200 ng·h/mL
same,Cmax,"400 mg, 400 mg single dose (A4), Fed, Low-fat, read-out: Cmax",7420 ng/mL
same,Vd/F,"400 mg, 400 mg single dose (A4), Fed, Low-fat, read-out: Vz/F",63.3 L
same,Vd/F,"400 mg, 400 mg single dose (A4), Fed, Low-fat, read-out: Vz/F(norm)",0.904 L/kg
same,half-life,"400 mg, 400 mg single dose (A4), Fed, Low-fat, read-out: t1/2 (converted)",7.52 h
same,AUC(0-t),"400 mg, Table 3, 4th section, 400 mg Compound I Fasted, n = 6, read-out: LS Means AUC0-t (Reference)",74500 ng·h/mL
same,AUC(0-inf),"400 mg, Table 3, 4th section, 400 mg Compound I Fasted, n = 6, read-out: LS Means AUC0-∞ (Reference)",78700 ng·h/mL
same,Cmax,"400 mg, Table 3, 4th section, 400 mg Compound I Fasted, n = 6, read-out: LS Means Cmax (Reference)",5910 ng/mL
same,Cmax,"400 mg, Table 3, 4th section, 400 mg Compound I Fed, Low-fat, n = 6, read-out: LS Means Cmax (Test)",13300 ng/mL
same,AUC(0-t),"400 mg, Table 3, 4th section, head as printed:, n = 6, read-out: LS Means AUC0-t (Test)",159000 ng·h/mL
same,AUC(0-inf),"400 mg, Table 3, 4th section, head as printed:, n = 6, read-out: LS Means AUC0-∞ (Test)",160000 ng·h/mL
same,Tmax,"400 mg, high-fat fed state, read-out: tmax values, range",1.5 to 6 h
same,Tmax,"800 mg, 800 mg single dose (A5), Fed, Low-fat, median, read-out: tmax",3 h
same,AUC(0-t),"800 mg, 800 mg single dose (A5), Fed, Low-fat, read-out: AUC0-t",159000 ng·h/mL
same,AUC(0-inf),"800 mg, 800 mg single dose (A5), Fed, Low-fat, read-out: AUC0-∞",160000 ng·h/mL
same,Cmax,"800 mg, 800 mg single dose (A5), Fed, Low-fat, read-out: Cmax",13300 ng/mL
same,Vd/F,"800 mg, 800 mg single dose (A5), Fed, Low-fat, read-out: Vz/F",63 L
same,Vd/F,"800 mg, 800 mg single dose (A5), Fed, Low-fat, read-out: Vz/F(norm)",0.876 L/kg
same,half-life,"800 mg, 800 mg single dose (A5), Fed, Low-fat, read-out: t1/2 (converted)",8.74 h
same,half-life,"800 mg, 400 and 800 mg, high- and low-fat states, read-out: Geometric mean t1/2, range",7.5 to 8.7 h
same,Tmax,"low-fat fed state, read-out: tmax values, range",1 to 4 h
same,Increase in AUC0-t,low-fat fed state (vs fasted),37.1%
same,Increase in AUC0-∞,low-fat fed state (vs fasted),34.7%
same,Increase in Cmax,low-fat fed state (vs fasted),64.4%
